The source of these data is US6284879A, “Transport associated protein splice variants” (The General Hospital Corporation, priority 1998, dated 2001).

pIC50: −log10 of the molar value. Entries after “also recorded” stand apart in the source; their conditions may differ.

One experiment has as its target T1, TAP1/TAP2 heterodimer (Homo sapiens, UniProt Q03518+Q03519).
T1 sequence (Q03518 1-748): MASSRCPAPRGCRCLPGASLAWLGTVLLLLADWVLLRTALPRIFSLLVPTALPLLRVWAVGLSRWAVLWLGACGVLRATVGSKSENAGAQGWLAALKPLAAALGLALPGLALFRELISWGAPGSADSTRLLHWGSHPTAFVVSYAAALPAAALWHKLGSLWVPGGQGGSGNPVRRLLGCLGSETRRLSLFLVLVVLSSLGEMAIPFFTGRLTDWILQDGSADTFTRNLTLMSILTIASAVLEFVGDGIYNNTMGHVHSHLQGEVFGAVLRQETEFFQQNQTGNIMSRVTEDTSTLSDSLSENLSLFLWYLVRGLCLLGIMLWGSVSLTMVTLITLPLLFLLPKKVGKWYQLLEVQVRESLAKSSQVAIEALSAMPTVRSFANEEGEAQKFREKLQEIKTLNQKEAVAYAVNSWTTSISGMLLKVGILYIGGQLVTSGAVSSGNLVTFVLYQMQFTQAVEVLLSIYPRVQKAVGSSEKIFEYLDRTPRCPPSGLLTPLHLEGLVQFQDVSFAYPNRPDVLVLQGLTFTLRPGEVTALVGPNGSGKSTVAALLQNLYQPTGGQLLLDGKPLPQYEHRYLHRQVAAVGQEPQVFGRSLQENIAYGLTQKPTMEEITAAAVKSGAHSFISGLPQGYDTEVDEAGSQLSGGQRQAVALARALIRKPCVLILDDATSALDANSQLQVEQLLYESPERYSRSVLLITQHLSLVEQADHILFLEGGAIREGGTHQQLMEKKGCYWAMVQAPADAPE
T1 sequence (Q03519 1-686 L359K/V379I): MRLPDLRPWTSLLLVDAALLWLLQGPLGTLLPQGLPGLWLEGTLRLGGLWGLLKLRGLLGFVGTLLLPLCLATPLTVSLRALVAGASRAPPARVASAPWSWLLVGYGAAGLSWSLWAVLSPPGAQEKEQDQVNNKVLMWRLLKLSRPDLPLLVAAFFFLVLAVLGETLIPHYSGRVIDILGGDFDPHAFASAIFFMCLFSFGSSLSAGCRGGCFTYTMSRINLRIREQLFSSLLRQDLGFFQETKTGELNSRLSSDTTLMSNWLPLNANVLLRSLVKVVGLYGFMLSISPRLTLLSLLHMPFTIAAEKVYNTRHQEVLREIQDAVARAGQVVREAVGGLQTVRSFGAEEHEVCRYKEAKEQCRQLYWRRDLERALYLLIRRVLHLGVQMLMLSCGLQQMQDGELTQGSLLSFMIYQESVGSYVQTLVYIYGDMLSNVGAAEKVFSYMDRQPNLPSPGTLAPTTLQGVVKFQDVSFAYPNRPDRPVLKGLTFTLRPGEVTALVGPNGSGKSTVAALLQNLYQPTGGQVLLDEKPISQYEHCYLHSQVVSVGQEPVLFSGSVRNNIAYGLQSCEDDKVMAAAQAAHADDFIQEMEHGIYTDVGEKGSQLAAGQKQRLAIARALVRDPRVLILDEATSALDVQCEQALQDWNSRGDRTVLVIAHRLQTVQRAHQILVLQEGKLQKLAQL
Description: competition with transport of 125I-Peptide RRYQNSTEL in TAP1/TAP2 transfectants. Type of experiment: cell-based. The protocol: (§1) Glycosylated ^125 I Peptide […] (SEQ ID NO: 6), Peptide […] (SEQ ID NO: 7), or Peptide […] (SEQ ID NO: 8) was recovered and measured. The peptide translocation assay was performed essentially as previously described (Neefjes et al., Science, 261:769 (1993); and Momburg et al., J. Exp. Med., 179:1613 (1994)). Briefly, 2.5-5.0×10^6 T2 cell (transfected or untransfected) were washed once with incubation buffer (130 mM KCl, 10 mM NaCl, 1 mM CaC2, 2 mM EDTA, 2 mM MgCl2, 5 mM Hepes, pH 7.3) and permeabilized for 10 minutes at 37° C. with streptolysin O (2 IU/ml) (Wellcome, Beckenham, UK) in 50 μl of incubation buffer. After further addition of 10 μl of 100 mM adenosine triphosphate, 10 μl of ^125 I-labeled peptide (~15 pM), and 30 μl of incubation buffer, cells were incubated for an additional 10 minutes at 37° C. Transport was terminated by the addition of 1 ml of 1% NP-40 detergent, after which nuclei were removed by centrifugation and glycosylated peptides were recovered using concanavalin A-Sepharose (Sigma, St. Louis, Mo.) and quantitated with a gamma counter (LKB-Wallac).
Differential peptide selectivity of the TAP1/TAP2 and TAP1/TAP2iso heterodimers was further investigated by competition experiments with ^125 I-labeled Peptide […] (SEQ ID NO: 6) and various unlabeled peptides: Peptide […] […] The glycosylated peptides were recovered by Con A-Sepharose and quantitated. […]

The next experiment addresses T2, TAP1/TAP2iso heterodimer (Homo sapiens, UniProt Q03518+Q03519).
T2 construct: expressed in transfected cells
T2 sequence (Q03519 1-653 isoform Q03519-2 L359K/V379I): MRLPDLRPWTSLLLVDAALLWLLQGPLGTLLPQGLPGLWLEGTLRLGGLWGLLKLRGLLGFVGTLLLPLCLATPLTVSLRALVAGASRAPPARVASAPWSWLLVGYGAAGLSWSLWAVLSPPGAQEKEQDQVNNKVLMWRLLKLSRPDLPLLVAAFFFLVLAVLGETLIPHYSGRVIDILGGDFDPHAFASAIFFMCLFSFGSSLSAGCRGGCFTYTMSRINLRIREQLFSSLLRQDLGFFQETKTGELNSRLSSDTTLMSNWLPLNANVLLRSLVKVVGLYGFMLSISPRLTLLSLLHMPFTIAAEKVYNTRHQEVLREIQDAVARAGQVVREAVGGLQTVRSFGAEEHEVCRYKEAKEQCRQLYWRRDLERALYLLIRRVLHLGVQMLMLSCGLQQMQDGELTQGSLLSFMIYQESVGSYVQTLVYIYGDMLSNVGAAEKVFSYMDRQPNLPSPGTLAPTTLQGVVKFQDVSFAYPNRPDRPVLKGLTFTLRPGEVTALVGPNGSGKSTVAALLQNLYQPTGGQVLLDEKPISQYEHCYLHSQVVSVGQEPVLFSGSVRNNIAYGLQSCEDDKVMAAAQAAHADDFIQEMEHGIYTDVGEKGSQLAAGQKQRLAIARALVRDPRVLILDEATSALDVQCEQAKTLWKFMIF
T2 sequence (Q03518 1-748): T1 sequence (Q03518 1-748)
Nature of the experiment: competition with transport of 125I-Peptide RRYQNSTEL in TAP1/TAP2iso transfectants. The format is cell-based. The note with it: TAP1/TAP2iso transfectants. The protocol:
as §1
Differential peptide selectivity of the TAP1/TAP2 and TAP1/TAP2iso heterodimers was further investigated by competition experiments with ^125 I-labeled Peptide […] (SEQ ID NO: 6) and various unlabeled peptides: Peptide […] (SEQ ID NO: 6); Peptide […] (SEQ ID NO: 7); Peptide […] (SEQ ID NO: 8); Peptide […] (SEQ ID NO: 9), the S1-24 fragment of human adrenocorticotropic hormone); and Peptide […] (SEQ ID NO: 10), residues 22 to 30 (human insulin B chain). The iodinated 9-mer Peptide […] was translocated in the presence of different concentrations of unlabeled competition peptides. The glycosylated peptides were recovered by Con A-Sepharose and quantitated. […] (self); (6B) competition of ^125 I-Peptide […] with Peptide […]; (6C) competition of ^125 I-Peptide […] with Peptide […]; and (6D) competition of ^125 I-Peptide […] with Peptide […]; and (6E) competition of ^125 I-Peptide […] with Peptide […].

Experiment [1] deals with TAP1/TAP2iso heterodimer (compared with TAP1/TAP2). Nature of the experiment: translocation of 125I-labeled peptides into the ER of permeabilized T2 transfectants. Type of experiment: cell-based, human. To be noted: 125I-labeled glycosylated peptide recovered from streptolysin O permeabilized T2 transfectants; comparison in words. The method, then: 10 mM stock solutions of peptides were prepared in dimethyl sulfoxide. Peptides (25 μg) were directly iodinated at unique tyrosine residues with the use of chloramine T (Sigma, St. Louis, Mo.), and free iodine was removed by gel filtration using Sephadex G 10 (Pharmacia) column chromatography.
as §1

Experiment [2] deals with T1 cells (naturally co-express both TAP2 and TAP2iso). The note with it: in words.
Setting [3] is: unlabeled peptide against transport of 125I-Peptide RRYQNSTEL, read-out: median inhibitory concentration (IC50).

Take SYSMEHGRWGKPVGKKRRPVKVYP: the “inhibition of transport of Peptide RRYQNSTEL” value on TAP1/TAP2 heterodimer (in words) and at TAP1/TAP2iso heterodimer (in words) was “did not inhibit” throughout.
For the sequence RRYQNSTEL [Peptide RRYQNSTEL], the “amount of translocated peptide, TAP1/TAP2iso compared with TAP1/TAP2” value in experiment [1] is “transported to similar extents; also recorded: translocated with equal efficiency”. For the same sequence, the pIC50 at TAP1/TAP2 heterodimer (setting [3]) and on TAP1/TAP2iso heterodimer (setting [3]) was around 6.82 in each case. Also, the “transportation of test peptides (relative IC50)” value in experiment [2] is given as “equal efficiency”.
